From patent US20230339939A1 (Bayer Aktiengesellschaft, priority 2020, published 2023)
Where two headings read alike, the source gives them in different places.

Tests used:
[1] = target: CSNK1D (Homo sapiens (Human), UniProt P48730); assay: CSNK1D Assay (ADP-Glo, 1 μM ATP); type: biochemical; details: median, read-out: CSNK1D IC50 [mol/l] (median)
Description: CSNK1D-inhibitory activity of compounds of the present invention in presence of 1 μM adenosine-tri-phosphate (ATP) was quantified employing the CSNK1 D assay as described in the following paragraphs. In essence, the enzyme activity is measured by quantification of the adenosine-di-phosphate (ADP), which is generated as a co-product of the enzyme reaction, via the “ADP-Glo™ Kinase Assay” kit from the company Promega. This detection system works as follows: In a first step the ATP not consumed in the kinase reaction is quantitatively converted to cAMP employing an adenylate cyclase (“ADP-Glo-reagent”), then the adenylate cyclase is stopped and the ADP generated in the kinase reaction converted to ATP which generates in a luciferase-based reaction a glow-luminescence signal (“Kinase Detection Reagent”).
Recombinant fusion protein of N-terminal Glutathion-S-Transferase (GST) and full-length human CSNK1D, expressed by baculovirus infected insect cells and purified via Glutathion affinity chromatography, was purchased from Life Technologies (product no. PV3665) and used as enzyme. As substrate for the kinase reaction the biotinylated peptide Btn-Ahx-[…] (C-terminus in amide form) was used which can be purchased e.g. from the company Biosyntan (Berlin-Buch, Germany).
For the assay 50 nl of a 100 fold concentrated solution of the test compound in DMSO was pipetted into a white 1536-well microtiter plate (Greiner Bio-One, Frickenhausen, Germany), 2 μL of a solution of CSNK1D in aqueous assay buffer [50 mM HEPES pH 7.5, 10% (v/v) glycerol, 10 mM MgCl2, 50 mM NaCl, 1 mM dithiothreitol, 0.01% (w/v) bovine serum albumin, 0.01% (v/v) Triton X-100] were added and the mixture was incubated for 15 min at 22° C. to allow pre-binding of the test compounds to the enzyme before the start of the kinase reaction. […] The concentration of CSNK1D was adjusted depending of the activity of the enzyme lot and was chosen appropriate to have the assay in the linear range, a typical concentration is about 0.5 ng/μL. The reaction was stopped by the addition of 2.5 μL of “ADP-Glo-reagent” (1:1.5 fold diluted with water) and the resulting mixture was incubated at 22° C. for 1 h to convert the ATP not consumed in the kinase reaction completely […]. Subsequently 2.5 μL of the “kinase detection reagent” (1.2 fold more concentrated than recommended by the producer) were added, the resulting mixture was incubated at 22° C. for 1 h and then the luminescence measured with a suitable measurement instrument (e.g. Viewlux™ from Perkin-Elmer). The amount of emitted light was taken as a measure for the amount of ADP generated and thereby for the activity of the CSNK1D.

[2] = target: wild-type Epidermal Growth Factor Receptor (EGFR) (Homo sapiens (Human), UniProt P00533); assay: WT-EGFR Kinase Assay (TR-FRET, 2 mM ATP); type: biochemical
Sequence of wild-type Epidermal Growth Factor Receptor (EGFR) (P00533 669-1210): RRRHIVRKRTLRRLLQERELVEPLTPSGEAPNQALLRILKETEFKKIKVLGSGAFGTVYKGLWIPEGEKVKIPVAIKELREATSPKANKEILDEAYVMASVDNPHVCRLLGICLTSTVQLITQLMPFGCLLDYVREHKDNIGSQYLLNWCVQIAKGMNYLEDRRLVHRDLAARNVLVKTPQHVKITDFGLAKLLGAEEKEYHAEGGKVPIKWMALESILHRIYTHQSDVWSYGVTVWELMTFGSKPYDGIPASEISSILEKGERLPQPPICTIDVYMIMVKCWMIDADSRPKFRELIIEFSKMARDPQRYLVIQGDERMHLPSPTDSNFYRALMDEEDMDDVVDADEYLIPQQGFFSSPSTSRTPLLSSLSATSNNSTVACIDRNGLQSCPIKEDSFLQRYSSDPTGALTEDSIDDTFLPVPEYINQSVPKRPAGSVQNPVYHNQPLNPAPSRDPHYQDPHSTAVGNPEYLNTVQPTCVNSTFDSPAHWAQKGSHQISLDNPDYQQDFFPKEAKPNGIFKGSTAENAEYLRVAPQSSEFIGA
Source text: Inhibitory activity of compounds of the present invention against wild-type Epidermal Growth Factor Receptor (EGFR) was quantified employing the TR-FRET based EGFR assay as described in the following paragraphs.
Recombinant fusion protein of N-terminal Glutathion-S-Transferase (GST) and a fragment of human EGFR (amino acids R669 to A1210), expressed in Sf9 insect cells and purified via affinity chromatography using Glutathion Sepharose as described above, was used as kinase. As substrate for the kinase reaction the biotinylated peptide biotin-Ahx-[…] (C-terminus in amide form) was used which can be purchased e.g. form the company Biosynthan GmbH (Berlin-Buch, Germany).
For the assay 50 nl of a 100 fold concentrated solution of the test compound in DMSO was pipetted into either a black low volume 384 well microtiter plate or a black 1536 well microtiter plate (both Greiner Bio-One, Frickenhausen, Germany), 2 μL of a solution of EGFR in aqueous assay buffer [50 mM Hepes pH 7.0, 10 mM MgCl2, 1 mM dithiothreitol, 0.5 mM EGTA, 0.3 mM activated sodium ortho-vanadate, 0.005% (w/v) bovine serum albumin, 0.005% (v/v) Tween-20] were added and the mixture was incubated for 15 min at 22° C. to allow pre-binding of the test compounds to the enzyme before the start of the kinase reaction. […] The concentration of EGFR was adjusted depending of the activity of the enzyme lot and was chosen appropriate to have the assay in the linear range, typical concentration was 7.6 pg/μL. The reaction was stopped by the addition of 3 μL of a solution of HTRF detection reagents (83.3 nM streptavidine-XL665 [Cisbio Bioassays, Codolet, France] and 1.67 nM PT66-Tb-Cryptate, a terbium-cryptate labelled anti-phospho-tyrosine antibody from Cisbio Bioassays [instead of the PT66-Tb-cryptate PT66-Eu-Chelate from Perkin Elmer can also be used]) in an aqueous EDTA-solution (133.3 mM EDTA, 0.2% (w/v) bovine serum albumin in 50 mM HEPES pH 7.5).
The resulting mixture was incubated 1 h at 22° C. to allow the binding of the biotinylated phosphorylated peptide to the streptavidine-XL665 and the PT66-Tb-Cryptate. Subsequently the amount of phosphorylated substrate was evaluated by measurement of the resonance energy transfer from the PT66-Tb-Cryptate to the streptavidine-XL665. Therefore, the fluorescence emissions at 620 nm and 665 nm after excitation at 337 nm were measured in a HTRF reader, e.g. a Pherastar (BMG Labtechnologies, Offenburg, Germany) or a Viewlux (Perkin-Elmer). The ratio of the emissions at 665 nm and at 622 nm was taken as the measure for the amount of phosphorylated substrate.

[3] = read-out: EGFR Wildtype 2 mM ATP IC50 [mol/l] (median)

Sequence of CSNK1D (P48730 whole entry): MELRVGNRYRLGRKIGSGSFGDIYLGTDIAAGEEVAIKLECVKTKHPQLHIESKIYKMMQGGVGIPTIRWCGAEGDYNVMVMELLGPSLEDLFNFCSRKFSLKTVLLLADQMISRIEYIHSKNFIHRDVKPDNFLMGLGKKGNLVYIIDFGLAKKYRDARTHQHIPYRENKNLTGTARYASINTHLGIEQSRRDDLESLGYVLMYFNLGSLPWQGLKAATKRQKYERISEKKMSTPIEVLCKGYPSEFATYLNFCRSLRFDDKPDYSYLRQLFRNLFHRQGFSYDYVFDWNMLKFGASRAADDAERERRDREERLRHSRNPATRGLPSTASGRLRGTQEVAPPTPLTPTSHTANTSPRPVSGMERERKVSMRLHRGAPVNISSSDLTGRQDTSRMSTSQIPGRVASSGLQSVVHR

SMILES | IC50 [1] [nM] | IC50 ([2]; median) [nM] | IC50 [2, 3] [nM]
CC(C(=O)Nc1cc(-c2[nH]c3ccc(F)nc3c2-c2ccccn2)ccn1)c1ccc(F)cc1 (racemic) [Example 1, 2-(4-fluorophenyl)-N-{4-[5-fluoro-3-(pyridin-2-yl)-1H-pyrrolo[3,2-b]pyridin-2-yl]pyridin-2-yl}propanamide] | 4.58 | > 20000 | 
CC(C(=O)Nc1cc(-c2[nH]c3cccnc3c2-c2ccccn2)ccn1)c1ccc(F)cc1 (racemic) [Example 6, 2-(4-fluorophenyl)-N-{4-[3-(pyridin-2-yl)-1H-pyrrolo[3,2-b]pyridin-2-yl]pyridin-2-yl}propanamide] | 3.37 | > 20000 | 
CC(C(=O)Nc1cc(-c2[nH]c3cccnc3c2-c2ccccc2)ccn1)c1ccc(F)cc1 (racemic) [Example 11, 2-(4-fluorophenyl)-N-[4-(3-phenyl-1H-pyrrolo[3,2-b]pyridin-2-yl)pyridin-2-yl]propanamide] | 7.02 | > 20000 | 
Cc1cc2[nH]c(-c3ccnc(NC(=O)C(C)c4ccc(F)cc4)c3)c(-c3ccccn3)c2nc1F (racemic) [Example 28, N-{4-[5-fluoro-6-methyl-3-(pyridin-2-yl)-1H-pyrrolo[3,2-b]pyridin-2-yl]pyridin-2-yl}-2-(4-fluorophenyl)propanamide] | 11.3 | > 20000 | 
COCC(C(=O)Nc1cc(-c2[nH]c3cccnc3c2-c2ccccn2)ccn1)c1ccc(F)cc1 (racemic) [Example 43, (2RS)-2-(4-fluorophenyl)-3-methoxy-N-(4-(3-(pyridin-2-yl)-1H-pyrrolo[3,2-b]pyridin-2-yl)pyridin-2-yl)propanamide] | 6.46 | > 20000 | 
COCCC(C(=O)Nc1cc(-c2[nH]c3cccnc3c2-c2ccccn2)ccn1)c1ccc(F)cc1 (racemic) [Example 44] | 9.84 | > 20000 | 
COCC(C(=O)Nc1cc(-c2[nH]c3cc(F)cnc3c2-c2ccccn2)ccn1)c1ccc(F)cc1 (racemic) [Example 45, (2RS)-2-(4-fluorophenyl)-N-[4-[6-fluoro-3-(2-pyridyl)-1H-pyrrolo[3,2-b]pyridin-2-yl]-2-pyridyl]-3-methoxy-propanamide] | 12 | > 20000 | 
CC(C(=O)Nc1cc(-c2[nH]c3ccc(F)nc3c2-c2ccccn2)ccn1)c1ccc(F)cc1 (single isomer, unassigned; (+)) [Example 3, (+)-2-(4-fluorophenyl)-N-{4-[5-fluoro-3-(pyridin-2-yl)-1H-pyrrolo[3,2-b]pyridin-2-yl]pyridin-2-yl}propanamide] | 2.87 |  | > 20000
CC(C(=O)Nc1cc(-c2[nH]c3cccnc3c2-c2ccccn2)ccn1)c1ccc(F)cc1 (single isomer, unassigned; (+)) [Example 7, (+)-2-(4-fluorophenyl)-N-{4-[3-(pyridin-2-yl)-1H-pyrrolo[3,2-b]pyridin-2-yl]pyridin-2-yl}propanamide] | 2.1 | > 20000 | 
CC(C)C(C(=O)Nc1cc(-c2[nH]c3ccc(F)nc3c2-c2ccccn2)ccn1)c1ccc(F)cc1 (single isomer, unassigned; (+)) [Example 26, (+)-2-(4-fluorophenyl)-N-{4-[5-fluoro-3-(pyridin-2-yl)-1H-pyrrolo[3,2-b]pyridin-2-yl]pyridin-2-yl}-3-methylbutanamide] | 7.62 |  | > 20000
Cc1cc2[nH]c(-c3ccnc(NC(=O)C(C)c4ccc(F)cc4)c3)c(-c3ccccn3)c2nc1F (single isomer, unassigned; (+)) [Example 29, (+)-N-{4-[5-fluoro-6-methyl-3-(pyridin-2-yl)-1H-pyrrolo[3,2-b]pyridin-2-yl]pyridin-2-yl}-2-(4-fluorophenyl)propanamide] | 30.2 | > 20000 | 
CC(C(=O)Nc1cc(-c2[nH]c3ccc(F)nc3c2-c2ccccn2)ccn1)c1ccc(F)cc1 (single isomer, unassigned; (-)) [Example 2, (−)-2-(4-fluorophenyl)-N-{4-[5-fluoro-3-(pyridin-2-yl)-1H-pyrrolo[3,2-b]pyridin-2-yl]pyridin-2-yl}propanamide] | 32.2 | > 20000 | 
CC(C(=O)Nc1cc(-c2[nH]c3cccnc3c2-c2ccccn2)ccn1)c1ccc(F)cc1 (single isomer, unassigned; (-)) [Example 8, (−)-2-(4-fluorophenyl)-N-{4-[3-(pyridin-2-yl)-1H-pyrrolo[3,2-b]pyridin-2-yl]pyridin-2-yl}propanamide] | 14.6 |  | > 20000
CC(C)C(C(=O)Nc1cc(-c2[nH]c3ccc(F)nc3c2-c2ccccn2)ccn1)c1ccc(F)cc1 (single isomer, unassigned; (-)) [Example 25, (−)-2-(4-fluorophenyl)-N-{4-[5-fluoro-3-(pyridin-2-yl)-1H-pyrrolo[3,2-b]pyridin-2-yl]pyridin-2-yl}-3-methylbutanamide] | 56.3 | > 20000 | 
Cc1cc2[nH]c(-c3ccnc(NC(=O)C(C)c4ccc(F)cc4)c3)c(-c3ccccn3)c2nc1F (single isomer, unassigned; (-)) [Example 30, (−)-N-{4-[5-fluoro-6-methyl-3-(pyridin-2-yl)-1H-pyrrolo[3,2-b]pyridin-2-yl]pyridin-2-yl}-2-(4-fluorophenyl)propanamide] | 4.65 |  | > 20000
O=C(Cc1ccc(F)cc1)Nc1cc(-c2[nH]c3ccc(F)nc3c2-c2ccccn2)ccn1 [Example 4, 2-(4-fluorophenyl)-N-{4-[5-fluoro-3-(pyridin-2-yl)-1H-pyrrolo[3,2-b]pyridin-2-yl]pyridin-2-yl}acetamide] | 2.33 |  | > 20000
O=C(Cc1ccc(F)cc1)Nc1cc(-c2[nH]c3cccnc3c2-c2ccccn2)ccn1 [Example 5, 2-(4-fluorophenyl)-N-{4-[3-(pyridin-2-yl)-1H-pyrrolo[3,2-b]pyridin-2-yl]pyridin-2-yl}acetamide] | 2.68 |  | > 20000
O=C(Cc1ccc(F)cc1)Nc1cc(-c2[nH]c3cc(F)cnc3c2-c2ccccn2)ccn1 [Example 9, 2-(4-fluorophenyl)-N-{4-[6-fluoro-3-(pyridin-2-yl)-1H-pyrrolo[3,2-b]pyridin-2-yl]pyridin-2-yl}acetamide] | 4.76 |  | > 20000
O=C(Cc1ccc(F)cc1)Nc1cc(-c2[nH]c3cc(F)cnc3c2-c2ccccc2)ccn1 [Example 10, 2-(4-fluorophenyl)-N-[4-(6-fluoro-3-phenyl-1H-pyrrolo[3,2-b]pyridin-2-yl)pyridin-2-yl]acetamide] | 4.27 |  | > 20000
